Laboratory results reported in PubChem BioAssay (NCI).
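Compound exposure: 48 hours, 5 concentrations, 96-well plates. GI50: concentration for 50% inhibition of growth. TGI: concentration producing complete growth inhibition.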

What was measured:
Assay in all cases: DTP human tumour cell line panel, 48 h
[1] = test system: COLO 205 colon
[2] = test system: CAKI-1 renal
[3] = test system: SN12C renal
[4] = test system: HOP-62 NSCLC
[5] = test system: PC-3 prostate
[6] = test system: IGROV1 ovarian
[7] = test system: MOLT-4 leukemia
[8] = test system: SF-268 CNS
[9] = test system: M14 melanoma
[10] = test system: MALME-3M melanoma
[11] = test system: TK-10 renal
[12] = test system: DU-145 prostate
[13] = test system: OVCAR-8 ovarian
[14] = test system: SK-OV-3 ovarian
[15] = test system: K-562 leukemia
[16] = test system: SF-295 CNS
[17] = test system: KM12 colon
[18] = test system: SNB-75 CNS
[19] = test system: RXF 393 renal
[20] = test system: SW-620 colon
[21] = test system: SK-MEL-28 melanoma
[22] = test system: HCC-2998 colon
[23] = test system: MCF7 breast
[24] = test system: SK-MEL-5 melanoma
[25] = test system: A549 NSCLC
[26] = test system: SR leukemia
[27] = test system: RPMI-8226 leukemia
[28] = test system: CCRF-CEM leukemia
[29] = test system: HT29 colon
[30] = test system: LOX IMVI melanoma
[31] = test system: HL-60(TB) leukemia
[32] = test system: T-47D breast
[33] = test system: MDA-MB-231 breast
[34] = test system: 786-0 renal
[35] = test system: UACC-257 melanoma
[36] = test system: EKVX NSCLC
[37] = test system: NCI-H23 lung
[38] = test system: HCT-15 colon
[39] = test system: SK-MEL-2 melanoma
[40] = test system: ACHN renal
[41] = test system: NCI-H522 lung
[42] = test system: HS 578T breast
[43] = test system: UO-31 renal
[44] = test system: NCI-H226 lung
[45] = test system: OVCAR-4 ovarian
[46] = test system: HCT-116 colon
[47] = test system: SNB-19 CNS
[48] = test system: UACC-62 melanoma
[49] = test system: OVCAR-3 ovarian
[50] = test system: NCI/ADR-RES ovarian
[51] = test system: HOP-92 NSCLC
[52] = test system: OVCAR-5 ovarian
[53] = test system: MDA-MB-435
[54] = test system: NCI-H460 lung
[55] = test system: SF-539 CNS
[56] = test system: U251 CNS
[57] = test system: BT-549 breast
[58] = test system: A498 renal

For `CCOC(=O)c1sc2nc(-c3ccccc3)nn2c1CBr`, the TGI [1] was 3.73 µM, the TGI [2] was 2.83 µM and the TGI [3] was 3.21 µM. The TGI [4] was > 10 µM, the TGI [5] was 4.16 µM and the TGI [6] was > 10 µM. It also gave a TGI [7] of 1.18 µM, a TGI [8] of 4.19 µM and a TGI [9] of 2.85 µM. The TGI [10] was 4.94 µM, the TGI [11] was 4.47 µM and the TGI [12] was > 10 µM. For the same compound, the TGI [13] was 4.03 µM, the TGI [14] was > 10 µM and the TGI [15] was 1.96 µM. For the same compound, the TGI [16] was > 10 µM, the TGI [17] was 4.14 µM and the TGI [18] was 3.69 µM. For the same compound, the TGI [19] was 4.07 µM, the TGI [20] was 3.88 µM and the TGI [21] was 3.41 µM. For the same compound, the TGI [22] was > 10 µM, the TGI [23] was 3.78 µM and the TGI [24] was 3.49 µM. The TGI [25] was > 10 µM, the TGI [26] was 1.51 µM and the TGI [27] was 4.25 µM. It also gave a TGI [28] of 0.642 µM, a TGI [29] of 3.77 µM and a TGI [30] of 3.17 µM. The TGI [31] was 1.34 µM, the TGI [32] was 5.71 µM and the TGI [33] was 3.69 µM. The TGI [34] was 2.95 µM, the TGI [35] was 3.92 µM and the TGI [36] was > 10 µM. It also gave a TGI [37] of 3.78 µM.
With `N#C/C(N)=C(\C#N)N=Cc1csc2ccccc12` the GI50 [1] was 72.3 µM, the TGI [1] was > 100 µM and the GI50 [38] was 71.9 µM. The TGI [38] was > 100 µM, the GI50 [39] was > 100 µM and the TGI [39] was > 100 µM. The GI50 [2] was 43.3 µM, the TGI [2] was > 100 µM and the GI50 [3] was 26.9 µM. For the same compound, the TGI [3] was > 100 µM, the GI50 [4] was 15 µM and the TGI [4] was 34.6 µM. The GI50 [5] was 47.3 µM, the TGI [5] was > 100 µM and the GI50 [6] was 15.8 µM. The TGI [6] was 67.2 µM, the GI50 [7] was 4.08 µM and the TGI [7] was > 100 µM. The GI50 [40] was 29.9 µM, the TGI [40] was > 100 µM and the GI50 [41] was 28.9 µM. The TGI [41] was > 100 µM, the GI50 [42] was 13.1 µM and the TGI [42] was 58.9 µM. The GI50 [43] was 91.2 µM, the TGI [43] was > 100 µM and the GI50 [44] was 19.4 µM. For the same compound, the TGI [44] was 76.3 µM, the GI50 [9] was 46.8 µM and the TGI [9] was > 100 µM. The GI50 [10] was 50.9 µM, the TGI [10] was > 100 µM and the GI50 [11] was 17.6 µM. For the same compound, the TGI [11] was 45 µM, the GI50 [45] was 43.5 µM and the TGI [45] was > 100 µM. For the same compound, the GI50 [12] was 29.6 µM, the TGI [12] was > 100 µM and the GI50 [46] was 26.8 µM. For the same compound, the TGI [46] was 83.6 µM, the GI50 [13] was 20.8 µM and the TGI [13] was 55.7 µM. The GI50 [47] was 27.7 µM, the TGI [47] was 71.9 µM and the GI50 [14] was 20.2 µM. The TGI [14] was 46 µM, the GI50 [15] was 95.5 µM and the TGI [15] was > 100 µM. For the same compound, the GI50 [16] was 51.5 µM, the TGI [16] was > 100 µM and the GI50 [17] was > 100 µM. For the same compound, the TGI [17] was > 100 µM, the GI50 [18] was 12.5 µM and the TGI [18] was 31.2 µM. The GI50 [20] was > 100 µM, the TGI [20] was > 100 µM and the GI50 [21] was 37.5 µM. The TGI [21] was > 100 µM, the GI50 [22] was 90.4 µM and the TGI [22] was > 100 µM. For the same compound, the GI50 [48] was 28.2 µM, the TGI [48] was > 100 µM and the GI50 [23] was 3.41 µM. For the same compound, the TGI [23] was > 100 µM, the GI50 [24] was 22.9 µM and the TGI [24] was > 100 µM. For the same compound, the GI50 [25] was 45.4 µM, the TGI [25] was > 100 µM and the GI50 [49] was 19.1 µM. For the same compound, the TGI [49] was 47.8 µM, the GI50 [50] was 32.4 µM and the TGI [50] was > 100 µM. For the same compound, the GI50 [27] was > 100 µM, the TGI [27] was > 100 µM and the GI50 [28] was > 100 µM. The TGI [28] was > 100 µM, the GI50 [51] was 24.1 µM and the TGI [51] was > 100 µM. The GI50 [29] was 22.2 µM, the TGI [29] was > 100 µM and the GI50 [52] was 67.1 µM. For the same compound, the TGI [52] was > 100 µM, the GI50 [53] was 36.2 µM and the TGI [53] was > 100 µM. The GI50 [30] was 26.3 µM, the TGI [30] was 66.3 µM and the GI50 [31] was > 100 µM. The TGI [31] was > 100 µM, the GI50 [32] was 1.07 µM and the TGI [32] was 28.5 µM. The GI50 [33] was 15.2 µM, the TGI [33] was 41 µM and the GI50 [54] was > 100 µM. The TGI [54] was > 100 µM, the GI50 [34] was 34.2 µM and the TGI [34] was > 100 µM. For the same compound, the GI50 [55] was 20.1 µM, the TGI [55] was 50.9 µM and the GI50 [56] was 20.2 µM. The TGI [56] was 45.3 µM, the GI50 [35] was > 100 µM and the TGI [35] was > 100 µM. For the same compound, the GI50 [36] was 27 µM, the TGI [36] was > 100 µM and the GI50 [37] was 11.5 µM. It also gave a TGI [37] of 51.2 µM.
`CC(=O)/C=C/C1=C(c2cccs2)c2ccccc2CC1` gave a GI50 [1] of 23.1 µM, a TGI [1] of 49 µM and a GI50 [38] of 21.8 µM. For the same compound, the TGI [38] was 52.7 µM, the GI50 [39] was 25.6 µM and the TGI [39] was 71.2 µM. For the same compound, the GI50 [2] was 41 µM, the TGI [2] was > 100 µM and the GI50 [3] was 23.5 µM. It also gave a TGI [3] of 48.5 µM, a GI50 [4] of 33.8 µM and a TGI [4] of 88 µM. The GI50 [5] was 40.7 µM, the TGI [5] was > 100 µM and the GI50 [6] was 19.8 µM. It also gave a TGI [6] of 49.7 µM, a GI50 [40] of 22.5 µM and a TGI [40] of 57.5 µM. The GI50 [41] was 25.1 µM, the TGI [41] was 66.8 µM and the GI50 [42] was 29.5 µM. For the same compound, the TGI [42] was 98.6 µM, the GI50 [43] was 25.7 µM and the TGI [43] was 86.4 µM. The GI50 [44] was 28.7 µM, the TGI [44] was 93.5 µM and the GI50 [9] was 18.8 µM. The TGI [9] was 41.7 µM, the GI50 [10] was 28.3 µM and the TGI [10] was 54.9 µM. For the same compound, the GI50 [11] was 32 µM, the TGI [11] was > 100 µM and the GI50 [45] was 25.1 µM. The TGI [45] was 64.9 µM, the GI50 [12] was 42.8 µM and the TGI [12] was > 100 µM. For the same compound, the GI50 [46] was 37.6 µM, the TGI [46] was > 100 µM and the GI50 [13] was 38.9 µM. For the same compound, the TGI [13] was > 100 µM, the GI50 [14] was 42 µM and the TGI [14] was > 100 µM. The GI50 [15] was 32.5 µM, the TGI [15] was > 100 µM and the GI50 [16] was 22.5 µM. The TGI [16] was 54.5 µM, the GI50 [17] was 25.2 µM and the TGI [17] was 56.2 µM. It also gave a GI50 [18] of 25.6 µM, a TGI [18] of 68.1 µM and a GI50 [19] of 31.8 µM. For the same compound, the TGI [19] was 78.9 µM, the GI50 [20] was 33.9 µM and the TGI [20] was > 100 µM. The GI50 [21] was 22.4 µM, the TGI [21] was 52.2 µM and the GI50 [22] was 25.8 µM. For the same compound, the TGI [22] was 59.8 µM, the GI50 [48] was 17.6 µM and the TGI [48] was 33.2 µM. For the same compound, the GI50 [25] was 37.3 µM, the TGI [25] was > 100 µM and the GI50 [49] was 29.7 µM. It also gave a TGI [49] of 63.6 µM, a GI50 [26] of 23.6 µM and a TGI [26] of 51.8 µM. It also gave a GI50 [50] of 27.3 µM, a TGI [50] of 81.7 µM and a GI50 [27] of 19.9 µM. The TGI [27] was 47.6 µM, the GI50 [28] was 25.3 µM and the TGI [28] was 54.2 µM. For the same compound, the GI50 [57] was 32.6 µM, the TGI [57] was > 100 µM and the GI50 [29] was 26.9 µM. The TGI [29] was 68.4 µM, the GI50 [52] was 60.7 µM and the TGI [52] was > 100 µM. It also gave a GI50 [53] of 25.8 µM, a TGI [53] of 51.3 µM and a GI50 [30] of 17.8 µM. For the same compound, the TGI [30] was 34.2 µM, the GI50 [31] was 20.7 µM and the TGI [31] was > 100 µM. For the same compound, the GI50 [32] was 23.7 µM, the TGI [32] was 53.5 µM and the GI50 [58] was 23.7 µM. The TGI [58] was 47.9 µM, the GI50 [33] was 23.3 µM and the TGI [33] was 59.1 µM. The GI50 [34] was 49.4 µM, the TGI [34] was > 100 µM and the GI50 [55] was 27.5 µM. It also gave a TGI [55] of 81 µM, a GI50 [56] of 22.8 µM and a TGI [56] of 51.1 µM. For the same compound, the GI50 [35] was 19.7 µM, the TGI [35] was 41.7 µM and the GI50 [36] was 35.1 µM. For the same compound, the TGI [36] was > 100 µM, the GI50 [37] was 34.3 µM and the TGI [37] was > 100 µM.
